Laboratory results taken from US9365522B2, “Pyrazole amide derivative” (AMGEN INC., priority 2015, dated 2016).

Biological target: T1, human RORγ-LBD (Homo sapiens, UniProt P51449)
T1 construct: made in house; host or cells: E. coli (BL-21)
T1 sequence (P51449 262-518): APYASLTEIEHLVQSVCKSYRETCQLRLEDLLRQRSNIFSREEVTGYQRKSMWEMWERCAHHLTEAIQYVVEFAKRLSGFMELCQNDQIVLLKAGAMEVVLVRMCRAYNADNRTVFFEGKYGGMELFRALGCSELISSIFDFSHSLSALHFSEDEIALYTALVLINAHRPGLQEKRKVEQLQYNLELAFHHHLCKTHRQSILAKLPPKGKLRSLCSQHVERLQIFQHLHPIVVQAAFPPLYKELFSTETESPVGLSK
Test: ROR gamma coactivator peptide recruitment Alphascreen assay (RORγ-LBD binding to GRIP1 coactivator peptide)
Type: biochemical
Settings: 5 nM human RORγ-LBD, 30 nM 7-β-hydroxycholesterol, 50 nM biotinylated GRIP1 coactivator peptide, overnight incubation at room temperature; read-out: result (pIC50, RORγ coactivator peptide recruitment Alphascreen assay) (converted)
Outline: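 Alphascreen proximity read-out after overnight room-temperature incubation, yielding pIC50 from 1-in-2 compound series (2.5% DMSO final). Mixture: 50 nM biotin-GRIP1 peptide, 30 nM 7-β-hydroxycholesterol agonist, 5 nM recombinant 6×His:Flag human RORγ-LBD (aa 262-518), 50 mM HEPES pH 7.4.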

SMILES | IC50 [nM]
C[C@H]1C[C@H](n2ncc(C(=O)N(CCC(F)(F)F)CC(=O)c3c(Cl)cncc3Cl)c2C(F)(F)F)CC[C@H]1C(=O)O [Example 767, (1R,2S,4R)-4-(4-((2-(3,5-dichloro-4-pyridinyl)-2-oxoethyl)(3,3,3-trifluoropropyl)carbamoyl)-5-(trifluoromethyl)-1H-pyrazol-1-yl)-2-methylcyclohexanecarboxylic acid] | 372
O=C(CN(C(=O)c1cnn([C@H]2CC[C@@H](C(=O)O)CC2)c1C(F)(F)F)C1CCC12CCCC2)c1c(Cl)cccc1Cl (stereo in doubt) [Example 627, cis-4-(4-((2-(2,6-dichlorophenyl)-2-oxoethyl)((1R)-spiro[3.4]oct-1-yl)carbamoyl)-5-(trifluoromethyl)-1H-pyrazol-1-yl)cyclohexanecarboxylic acid] | 64.6
C[C@]1(C(=O)O)CC[C@H](n2ncc(C(=O)N(CC(=O)c3c(Cl)cccc3Cl)CC3(C(F)(F)F)CC3)c2C(F)(F)F)CC1 [Example 729, (1r,4r)-4-(4-((2-(2,6-dichlorophenyl)-2-oxoethyl)((1-(trifluoromethyl)cyclopropyl)methyl)carbamoyl)-5-(trifluoromethyl)-1H-pyrazol-1-yl)-1-methylcyclohexanecarboxylic acid] | 2.4
C[C@H]1C[C@](C)(C(=O)O)CC[C@H]1n1ncc(C(=O)N(CC(=O)c2c(Cl)cncc2Cl)CC(C)(C)C)c1C(F)(F)F (stereo in doubt) [Example 842, (1R,3S,4R)-4-(4-((2-(3,5-dichloro-4-pyridinyl)-2-oxoethyl)(2,2-dimethylpropyl)carbamoyl)-5-(trifluoromethyl)-1H-pyrazol-1-yl)-1,3-dimethylcyclohexanecarboxylic acid] | 309
O=C(CN(CC1(F)CCCC1)C(=O)c1cnn([C@H]2CC[C@@H](C(=O)O)CC2)c1C(F)(F)F)c1c(Cl)cncc1Cl [Example 667, cis-4-(4-((2-(3,5-dichloro-4-pyridinyl)-2-oxoethyl)((1-fluorocyclopentyl)methyl)carbamoyl)-5-(trifluoromethyl)-1H-pyrazol-1-yl)cyclohexanecarboxylic acid] | 302

Further lines, results first:

IC50 [nM] | SMILES
3.89 | Cc1cc(Cl)c(C(=O)CN(C[C@@H]2CCC(C)(C)O2)C(=O)c2cnn([C@H]3CC[C@](C)(C(=O)O)CC3)c2C(F)(F)F)c(Cl)c1 [Example 783, trans-4-(4-((2-(2,6-dichloro-4-methylphenyl)-2-oxoethyl)(((2S)-5,5-dimethyltetrahydro-2-furanyl)methyl)carbamoyl)-5-(trifluoromethyl)-1H-pyrazol-1-yl)-1-methylcyclohexanecarboxylic acid]
74.1 | C[C@]1(C(=O)O)CC[C@H](n2ncc(C(=O)N(CC(=O)c3c(Cl)cncc3Cl)CC3CC(F)(F)C3)c2C(F)(F)F)CC1 [Example 594, trans-4-(4-((2-(3,5-dichloro-4-pyridinyl)-2-oxoethyl)((3,3-difluorocyclobutyl)methyl)carbamoyl)-5-(trifluoromethyl)-1H-pyrazol-1-yl)-1-methylcyclohexanecarboxylic acid]
6.03 | Cc1cc(Cl)c(C(=O)CN(C(=O)c2cnn(C3CCC(C(=O)O)CC3)c2C(F)(F)F)C2CCC(C)(C)CC2)c(Cl)c1 (stereo in doubt) [Example 516, trans-4-(4-((2-(2,6-dichloro-4-methylphenyl)-2-oxoethyl)(4,4-dimethylcyclohexyl)carbamoyl)-5-(trifluoromethyl)-1H-pyrazol-1-yl)-1-cyclohexanecarboxylic acid]
26.9 | CC1(C)CC[C@H](CN(CC(=O)c2c(Cl)cncc2Cl)C(=O)c2cnn([C@H]3CC[C@](C)(C(=O)O)CC3)c2C(F)(F)F)O1 [Example 655, trans-4-(4-((2-(3,5-dichloro-4-pyridinyl)-2-oxoethyl)(((2R)-5,5-dimethyltetrahydro-2-furanyl)methyl)carbamoyl)-5-(trifluoromethyl)-1H-pyrazol-1-yl)-1-methylcyclohexanecarboxylic acid]
